Reference: patent US10730865B2, “Compounds for modulating aquaporins” (APOGLYX AB, priority 2016, dated 2020)

Target: human aquaporin 9 (Homo sapiens (Human), UniProt O43315)
Assay: Calcein quenching fluostar assay (inhibition of human aquaporin 9)
Assay type: cell-based
Settings: Human AQP9 cell line; example compounds used as 1 mM stock solutions in DMSO
Experimental: Calcein Quenching Fluostar Assay
A calcein quenching fluostar assay was performed in order to investigate the biological activity of the newly synthesized examples 1 to 57. This type of assay is disclosed in J. Biol. Chem., 2011, 286, 44319-44325 and Am. J. Physiol. Renal Physiol. (2010), 298, F224-230.
1) Two days prior to commencement of the assay, seed 10,000 cells/well of 96 well black clear bottom plate (Greiner Poly-lysin plate). A 1:1 mix of Dulbecco's Modified Eagle's Medium: Nutrient Mixture F-12 (DMEM: F12) was obtained from Gibco. Tetracycline stock of 5 mg/ml in 96% ethanol is used. Medium: DMEM/F12/10% Donor Bovine Serum, Human AQP9 cell line+1:270,000 tetracyclin, mouse AQP9 cell line+1:2,700,000 tetracycline.
2) Day of assay: Flick/slam off the medium and add 50 μl/well of loading solution: 5 ml DMEM/F12/10% Donor Bovine Serum, 25 μl Calcein AM—from freshly dissolved aliquot in 50 μl DMSO (VWR #734-1434), and 100 μl Probenecid.
3) Incubate the well for 90 minutes at 37° C.
4) Perform one wash with 75 μl wash buffer.
5) Add 75 μl of an example compound prepared in wash buffer per well.
Example compounds are prepared in 500 μl U bottom PP plates (NUNC). 2.7 μl Substance in DMSO are added to row A; 180 μl of wash buffer+1% DMSO are added to rows B—H. 90 μl from row A are transferred and mixed with all other wells (up to row G) to make a 3-fold dilution series.
6) Assay in FLUOstar Optima at 25° C. Settings buffer addition at 135 μl/seconds, add 75 μl/well, record time course for 30 seconds, add sucrose buffer 3.6 seconds into recording.
7) Normalization to initial in Excel.
8) Fit to “exponential decay” function in GraphPad Prism 5.0, then arrange half live shrinking values according to wells and fit dose-response curves.

Chain of human aquaporin 9 (O43315 whole entry): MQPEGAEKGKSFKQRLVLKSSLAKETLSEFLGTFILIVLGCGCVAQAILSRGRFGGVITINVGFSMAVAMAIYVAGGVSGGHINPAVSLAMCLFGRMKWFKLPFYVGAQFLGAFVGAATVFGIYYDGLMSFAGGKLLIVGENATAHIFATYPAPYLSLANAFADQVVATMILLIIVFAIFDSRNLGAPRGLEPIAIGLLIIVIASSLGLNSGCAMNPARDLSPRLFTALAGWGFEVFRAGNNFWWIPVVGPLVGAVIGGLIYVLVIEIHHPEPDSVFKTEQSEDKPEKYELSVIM

| EC50 | pEC50 in the inhibition of human aquaporin 9 | SMILES |
| --- | --- | --- |
| 43 nM |  | CCc1nnc(SCC(=O)Nc2nnc(-c3ccc(OCCF)cc3)s2)n1CC [Example 26, 2-[(diethyl-4H-1,2,4-triazol-3-yl)sulfanyl]-N-{5-[4-(2-fluoroethoxy)phenyl]-1,3,4-thiadiazol-2-yl}acetamide] |
| 69 nM |  | CCOc1ccc(-c2nnc(NC(=O)CSc3nnc(C(C)C)n3CC)s2)cc1 [Example 27, N-[5-(4-ethoxyphenyl)-1,3,4-thiadiazol-2-yl]-2-{[4-ethyl-5-(propan-2-yl)-4H-1,2,4-triazol-3-yl]sulfanyl}acetamide] |
| 44 nM |  | CCn1c(SCC(=O)Nc2nnc(-c3ccc(OCCF)cc3)s2)nnc1C(C)C [Example 28, 2-{[4-ethyl-5-(propan-2-yl)-4H-1,2,4-triazol-3-yl]sulfanyl}-N-{5-[4-(2-fluoroethoxy)phenyl]-1,3,4-thiadiazol-2-yl}acetamide] |
| 90 nM |  | CCn1c(SCC(=O)Nc2nnc(-c3ccc(OC(C)C)cc3)s2)nnc1C(C)C [Example 29, 2-{[4-ethyl-5-(propan-2-yl)-4H-1,2,4-triazol-3-yl]sulfanyl}-N-{5-[4-(propan-2-yloxy)phenyl]-1,3,4-thiadiazol-2-yl}acetamide] |
| 21 nM |  | CCc1nnc(SCC(=O)Nc2nnc(-c3ccc(OCCOC)cc3)s2)n1CC [Example 30, 2-[(diethyl-4H-1,2,4-triazol-3-yl)sulfanyl]-N-{5-[4-(2-methoxyethoxy)phenyl]-1,3,4-thiadiazol-2-yl}acetamide] |
| 37 nM |  | CCn1c(SCC(=O)Nc2nnc(-c3ccc(OCCOC)cc3)s2)nnc1C(C)C [Example 31, 2-{[4-ethyl-5-(propan-2-yl)-4H-1,2,4-triazol-3-yl]sulfanyl}-N-{5-[4-(2-methoxyethoxy)phenyl]-1,3,4-thiadiazol-2-yl}acetamide] |
| 43 nM |  | CCc1nnc(SCC(=O)Nc2nnc(-c3ccc(C#N)cc3)s2)n1CC [Example 32, N-[5-(4-cyanophenyl)-1,3,4-thiadiazol-2-yl]-2-[(4,5-diethyl-4H-1,2,4-triazol-3-yl)sulfanyl]acetamide] |
| 119 nM |  | CCc1nnc(SCC(=O)Nc2nnc(-c3ccc(C(F)(F)F)cc3)s2)n1CC [Example 33, 2-[(4,5-diethyl-4H-1,2,4-triazol-3-yl)sulfanyl]-N-[5-(4-(trifluoromethyl)phenyl)-1,3,4-thiadiazol-2-yl]acetamide] |
| 55 nM |  | CCc1nnc(SCC(=O)Nc2nnc(-c3ccc(OC(C)C)cc3)s2)n1CC [Example 34, 2-[(4,5-diethyl-4H-1,2,4-triazol-3-yl)sulfanyl]-N-[5-(4-isopropoxyphenyl)-1,3,4-thiadiazol-2-yl]acetamide] |
| 54 nM |  | CCc1nnc(SCC(=O)Nc2nnc(-c3ccc(Cl)cc3)s2)n1CC [Example 35, N-[5-(4-chlorophenyl)-1,3,4-thiadiazol-2-yl]-2-[(4,5-diethyl-4H-1,2,4-triazol-3-yl)sulfanyl]acetamide] |
| 51 nM | 7.3 | CCc1nnc(SCC(=O)Nc2nnc(-c3ccc(OC)cc3)s2)n1C1CC1 [Example 36, 2-[(4-cyclopropyl-5-ethyl-4H-1,2,4-triazol-3-yl)sulfanyl]-N-[5-(4-methoxyphenyl)-1,3,4-thiadiazol-2-yl]acetamide] |
| 132 nM | 6.9 | CCn1c(Cc2cccc(F)c2)nnc1SCC(=O)Nc1nnc(-c2ccc(OC)cc2)s1 [Example 37, 2-[(4-ethyl-5-(3-fluorobenzyl)-4H-1,2,4-triazol-3-yl)sulfanyl]-N-[5-(4-methoxyphenyl)-1,3,4-thiadiazol-2-yl]acetamide] |
| 81 nM | 7.1 | CCn1c(SCC(=O)Nc2nnc(-c3ccc(O)cc3)s2)nnc1C1CC1 [Example 38, 2-[(5-cyclopropyl-4-ethyl-4H-1,2,4-triazol-3-yl)sulfanyl]-N-[5-(4-hydroxyphenyl)-1,3,4-thiadiazol-2-yl]acetamide] |
| 135 nM |  | CCc1nnc(SCC(=O)Nc2nnc(-c3ccc(S(C)(=O)=O)cc3)s2)n1C1CC1 [Example 39, 2-[(4-cyclopropyl-5-ethyl-4H-1,2,4-triazol-3-yl)sulfanyl]-N-[5-(4-(methylsulfonyl)phenyl)-1,3,4-thiadiazol-2-yl]acetamide] |
| 168 nM |  | CCc1nnc(SCC(=O)Nc2nnc(-c3ccc(OC)cc3)s2)n1CCCO [Example 40, 2-[(5-ethyl-4-(3-hydroxypropyl)-4H-1,2,4-triazol-3-yl)sulfanyl]-N-[5-(4-methoxyphenyl)-1,3,4-thiadiazol-2-yl]acetamide] |
| 490 nM | 6.3 | CCc1nnc(SCC(=O)Nc2nnc(-c3ccc(S(C)(=O)=O)cc3)s2)n1C [Example 41, 2-[(5-ethyl-4-methyl-4H-1,2,4-triazol-3-yl)sulfanyl]-N-[5-(4-(methylsulfonyl)phenyl)-1,3,4-thiadiazol-2-yl]acetamide] |
| 76 nM | 7.1 | CCc1nnc(SCC(=O)Nc2nnc(-c3ccc(S(C)(=O)=O)cc3)s2)n1C(C)C [Example 42, 2-[(5-ethyl-4-isopropyl-4H-1,2,4-triazol-3-yl)sulfanyl]-N-[5-(4-(methylsulfonyl)phenyl)-1,3,4-thiadiazol-2-yl]acetamide] |
| 52 nM |  | CCn1c(SCC(=O)Nc2nnc(-c3ccc(OCCOC)cc3)s2)nnc1C1CC1 [Example 43, 2-[(5-cyclopropyl-4-ethyl-4H-1,2,4-triazol-3-yl)sulfanyl]-N-[5-(4-(2-methoxyethoxy)phenyl)-1,3,4-thiadiazol-2-yl]acetamide] |
| 457 nM |  | CCn1c(CCOC)nnc1SCC(=O)Nc1nnc(-c2ccc(OC)cc2)s1 [Example 44, 2-[(4-ethyl-5-(2-methoxyethyl)-4H-1,2,4-triazol-3-yl)sulfanyl]-N-[5-(4-methoxyphenyl)-1,3,4-thiadiazol-2-yl]acetamide] |
| 40 nM |  | CCn1c(SCC(=O)Nc2nnc(-c3ccc(S(C)(=O)=O)cc3)s2)nnc1C1CCCC1 [Example 45, (2-[(5-cyclopentyl-4-ethyl-4H-1,2,4-triazol-3-yl)sulfanyl]-N-[5-(4-methanesulfonylphenyl)-1,3,4-thiadiazol-2-yl]acetamide)] |
| 112 nM |  | CCc1nnc(SCC(=O)Nc2nnc(-c3ccc(OC)cc3)s2)n1CCOC [Example 46, 2-[(5-ethyl-4-(2-methoxyethyl)-4H-1,2,4-triazol-3-yl)sulfanyl]-N-[5-(4-methoxyphenyl)-1,3,4-thiadiazol-2-yl]acetamide] |
| 159 nM |  | CCc1nnc(SCC(=O)Nc2nnc(-c3ccc(OC)cc3)s2)n1CCCOC [Example 47, 2-{[5-ethyl-4-(3-methoxypropyl)-4H-1,2,4-triazol-3-yl]sulfanyl}-N-[5-(4-methoxyphenyl)-1,3,4-thiadiazol-2-yl]acetamide] |
| 230 nM |  | CCn1c(CN2CCOCC2)nnc1SCC(=O)Nc1nnc(-c2ccc(OC)cc2)s1 [Example 48, 2-{[4-ethyl-5-(morpholin-4-ylmethyl)-4H-1,2,4-triazol-3-yl]sulfanyl}-N-[5-(4-methoxyphenyl)-1,3,4-thiadiazol-2-yl]acetamide] |
| 224 nM |  | CCc1nnc(SCC(=O)Nc2nnc(-c3ccccn3)s2)n1CC [Example 49, 2-[(4,5-diethyl-4H-1,2,4-triazol-3-yl)sulfanyl]-N-[5-(pyridin-2-yl)-1,3,4-thiadiazol-2-yl]acetamide] |
